Here are results for 25 molecules from ChEMBL document CHEMBL4680259, “Discovery of bazedoxifene analogues targeting glycoprotein 130” (Eur J Med Chem, 2020).

Test [1] relates to A549. Nature of the test: Antiproliferative activity against human A549 cells assessed as cell growth inhibition measured after 24 hrs by MTT assay. Format: functional, cell-based. The following applies: A549, 24 h.
For test [2], the target named is T1, Interleukin-6 receptor subunit beta (Homo sapiens) (UniProt P40189).
T1 sequence (whole entry): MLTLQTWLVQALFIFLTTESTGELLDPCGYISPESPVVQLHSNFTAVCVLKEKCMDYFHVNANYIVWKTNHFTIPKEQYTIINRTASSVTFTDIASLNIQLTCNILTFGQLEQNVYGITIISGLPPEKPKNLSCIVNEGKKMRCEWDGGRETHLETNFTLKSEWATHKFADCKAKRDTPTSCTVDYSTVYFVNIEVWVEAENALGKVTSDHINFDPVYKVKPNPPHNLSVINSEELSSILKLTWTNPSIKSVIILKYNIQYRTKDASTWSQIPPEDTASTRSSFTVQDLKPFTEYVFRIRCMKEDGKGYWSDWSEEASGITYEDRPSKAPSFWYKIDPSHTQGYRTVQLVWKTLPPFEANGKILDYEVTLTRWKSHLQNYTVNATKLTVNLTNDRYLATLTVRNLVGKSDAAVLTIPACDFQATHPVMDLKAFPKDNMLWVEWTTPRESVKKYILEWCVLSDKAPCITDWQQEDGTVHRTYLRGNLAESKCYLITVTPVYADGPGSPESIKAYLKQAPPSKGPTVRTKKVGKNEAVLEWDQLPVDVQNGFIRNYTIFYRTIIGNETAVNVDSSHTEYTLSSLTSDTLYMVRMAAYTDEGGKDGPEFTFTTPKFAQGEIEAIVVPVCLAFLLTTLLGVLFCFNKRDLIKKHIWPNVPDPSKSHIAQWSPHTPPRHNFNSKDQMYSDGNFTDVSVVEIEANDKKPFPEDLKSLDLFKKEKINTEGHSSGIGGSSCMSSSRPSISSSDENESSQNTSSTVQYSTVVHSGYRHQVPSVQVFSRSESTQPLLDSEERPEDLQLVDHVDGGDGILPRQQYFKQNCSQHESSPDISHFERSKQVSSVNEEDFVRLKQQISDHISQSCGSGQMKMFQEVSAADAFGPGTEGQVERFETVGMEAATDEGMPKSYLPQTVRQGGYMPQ
As to the kind of experiment: Binding affinity to immobilized GP130 (unknown origin) assessed as response unit at 20 uM by SPR analysis.

`CCCCCCCOc1ccc(Cn2cc(C3CC(c4ccc(C(F)(F)F)cc4)=NN3C(N)=O)c3cc(Br)ccc32)cc1` (stereo not given): the half-inhibitory concentration (IC50) in test [1] was greater than 50 µM. The Activity in test [2] is 0.6 RU.
For the molecule `COc1ccc(C2=NN(C(N)=O)C(c3cn(Cc4ccc(OCCN5CCCCC5)cc4)c4ccc(OC)cc34)C2)cc1` (stereo not given), the IC50 in test [1] came to 14.4 µM. The Activity in test [2] stood at 28.8 RU.
The corresponding values for `NC(=O)N1N=C(c2ccc(C(F)(F)F)cc2)CC1c1cn(Cc2ccc(OCCN3CCCCC3)cc2)c2ccc(Br)cc12` (stereo not given) are 4.69 µM and 19.9 RU.
In the case of `NC(=O)N1N=C(c2cccc(C(F)(F)F)c2)CC1c1cn(Cc2ccc(OCCN3CCCCC3)cc2)c2ccc(Br)cc12` (stereo not given), in test [1], the IC50 turned out to be 5.42 µM. In addition, the Activity in test [2] worked out at 10.2 RU.
Regarding `COc1ccc2c(c1)c(C1CC(c3cc(OC)c(OC)c(OC)c3)=NN1C(N)=O)cn2Cc1ccc(OCCN2CCCCC2)cc1` (stereo not given), in test [1], the 50% inhibitory concentration (IC50) worked out at 12.2 µM. Besides, the Activity in test [2] was 16.2 RU.
For `COc1ccc(C2=NN(C(N)=O)C(c3cn(Cc4ccc(OCCN5CCCCC5)cc4)c4ccccc34)C2)cc1` (stereo not given), in that order: 12.7 µM and 33.3 RU.
As for `NC(=O)N1N=C(c2ccc(C(F)(F)F)cc2)CC1c1cn(Cc2ccc(OCCC3CCNCC3)cc2)c2ccc(Br)cc12` (stereo not given), the IC50 in test [1] amounted to 4.62 µM. The Activity in test [2] stood at 35 RU.
For `NC(=O)N1N=C(c2ccc(F)cc2)CC1c1cn(Cc2ccc(OCCN3CCCCC3)cc2)c2ccc(Br)cc12` (stereo not given), in that order: 6.8 µM and 19.9 RU.
For `NC(=O)N1N=C(c2ccc(C(F)(F)F)cc2)CC1c1cn(Cc2ccc(OCCN3CCCCC3)cc2)c2ccccc12` (stereo not given), in that order: 5.6 µM and 8.2 RU.
The corresponding values for `COc1ccc2c(c1)c(C1CC(c3ccc(F)cc3)=NN1C(N)=O)cn2Cc1ccc(OCCN2CCCCC2)cc1` (stereo not given) are 9.47 µM and 10.9 RU.
Consider `CN(C)CCOc1ccc(Cn2cc(C3CC(c4ccc(C(F)(F)F)cc4)=NN3C(N)=O)c3cc(Br)ccc32)cc1` (stereo not given), for which, in test [1], the IC50 is 6.21 µM. For the same molecule, the Activity in test [2] stood at 22.7 RU.
With `NC(=O)N1N=C(c2ccc(C(F)(F)F)cc2)C[C@@H]1c1cn(Cc2ccc(OCCN3CCCCCC3)cc2)c2ccc(Br)cc12`, the 50% inhibitory concentration (IC50) in test [1] is 6.16 µM. Also, the Activity in test [2] came to 24.2 RU.
For `COc1cc(C2=NN(C(N)=O)C(c3cn(Cc4ccc(OCCN5CCCCC5)cc4)c4ccc(Br)cc34)C2)cc(OC)c1OC` (stereo not given), in that order: 6.96 µM and 32.7 RU.
The corresponding values for `NC(=O)N1N=C(c2ccc(C(F)(F)F)cc2)CC1c1cn(Cc2ccc(OCCN3CCOCC3)cc2)c2ccc(Br)cc12` (stereo not given) are 9.44 µM and 8.2 RU.
With `COc1ccc2c(c1)c(C1CC(c3ccc(C(F)(F)F)cc3)=NN1C(N)=O)cn2Cc1ccc(OCCN2CCCCC2)cc1` (stereo not given), the IC50 in test [1] stood at 6.18 µM. Moreover, the Activity in test [2] came to 10.4 RU.
As to `COc1ccccc1C1=NN(C(N)=O)C(c2cn(Cc3ccc(OCCN4CCCCC4)cc3)c3ccc(Br)cc23)C1` (stereo not given), the half-inhibitory concentration (IC50) in test [1] is 6.98 µM. The Activity in test [2] is 36.4 RU.
For the molecule `COc1cc(C2=NN(C(N)=O)C(c3cn(Cc4ccc(OCCN5CCCCC5)cc4)c4ccccc34)C2)cc(OC)c1OC` (stereo not given), the IC50 in test [1] was 11.8 µM. In test [2], the Activity was 21.7 RU.
Consider `NC(=O)N1N=C(c2ccc(Br)cc2)CC1c1cn(Cc2ccc(OCCN3CCCCC3)cc2)c2ccc(Br)cc12` (stereo not given), for which, in test [1], the IC50 was 6.73 µM. For the same molecule, in test [2], the Activity stood at 47.3 RU.
As to `COc1ccc(C2=NN(C(N)=O)C(c3cn(Cc4ccc(OCCN5CCCCC5)cc4)c4ccc(Br)cc34)C2)cc1OC` (stereo not given), the IC50 in test [1] was determined as 7.43 µM. For the same molecule, the Activity in test [2] was 30.1 RU.
For `NC(=O)N1N=C(c2ccc(F)cc2)CC1c1cn(Cc2ccc(OCCN3CCCCC3)cc2)c2ccccc12` (stereo not given), in that order: 7.44 µM and 21 RU.
For `NC(=O)N1N=C(c2ccc(C(F)(F)F)cc2)C[C@H]1c1cn(Cc2ccc(OCCN3CCCCCC3)cc2)c2ccc(Br)cc12`, in that order: 3.04 µM and 37.4 RU.
With `NC(=O)N1N=C(c2cccc(Cl)c2)CC1c1cn(Cc2ccc(OCCN3CCCCC3)cc2)c2ccc(Br)cc12` (stereo not given), the half-maximal inhibitory concentration (IC50) in test [1] turned out to be 5.9 µM. The Activity in test [2] is 27.4 RU.
Take `NC(=O)N1N=C(c2ccc(Cl)cc2)CC1c1cn(Cc2ccc(OCCN3CCCCC3)cc2)c2ccc(Br)cc12` (stereo not given): the IC50 in test [1] is 5.41 µM. For the same molecule, the Activity in test [2] worked out at 29.2 RU.
The corresponding values for `COc1cccc(C2=NN(C(N)=O)C(c3cn(Cc4ccc(OCCN5CCCCC5)cc4)c4ccc(Br)cc34)C2)c1` (stereo not given) are 6.23 µM and 19.6 RU.
For `COc1ccc(C2=NN(C(N)=O)C(c3cn(Cc4ccc(OCCN5CCCCC5)cc4)c4ccc(Br)cc34)C2)cc1` (stereo not given), in that order: 5.9 µM and 26.2 RU.
